Test systems include RPMI-8226; OVCAR-4; HOP-92; UO-31; A498; SNB-19; IGROV-1; SK-MEL-28; U-251; LOX IMVI; Hs-578T; NCI-H522; SK-OV-3; HCT-116; SN12C; OVCAR-8; SK-MEL-2; SR; UACC-62; KM12.
Common to all, as to assay: NCI tumour cell line growth inhibition, 48 h

SMILES strings stand for the structures.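 Where inhibition never reached the appropriate level, the endpoint shown equals the highest concentration tested. Otherwise, values were interpolated linearly from a five-concentration, 48-hour dose response in 96-well plates. Abbreviation: GI50, concentration required for 50% inhibition of growth.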 Active and inactive are the calls of the source. No stated cut-off is given here; in the data, active = GI50 up to about 1.1 µM and inactive = higher.

Take `CO[C@]12CC(=O)C3(C(C[C@H]4CC5CCC6=CC(=O)CC[C@]6(OC(C)=O)C5C[C@@]43C)C1)C1C[C@H]3[C@@H]4CCC5=CC(=O)CC[C@]5(OC(C)=O)[C@H]4CC[C@]3(C)C12` (stereo partly drawn): the GI50 in the test on RPMI-8226, with OVCAR-4, in the test on HOP-92, in the test on UO-31, in the test on A498 and with SNB-19 was > 100 µM (inactive) throughout. For the same molecule, the GI50 in the test with IGROV-1, in the test on SK-MEL-28, in the test on U-251, with LOX IMVI, in the test with Hs-578T and in the test with NCI-H522 was > 100 µM (inactive) each time. Moreover, the GI50 in the test with SK-OV-3, with HCT-116, in the test on SN12C, with OVCAR-8, in the test on SK-MEL-2 and with SR was > 100 µM (inactive) each time. Also, the GI50 in the test with UACC-62 is > 100 µM (inactive).
With `COc1cccc(NC(=O)CC(=O)N2N=C(C)C(/N=N/c3ccc(S(=O)(=O)CCOS(=O)(=O)O)cc3)C2=O)c1` (stereo not drawn), the GI50 in the test with RPMI-8226 is 2.75 µM (inactive); with OVCAR-4, 1.58 µM (inactive); in the test with KM12, 11.6 µM (inactive); with HOP-92, 2.21 µM (inactive); with UO-31, 12.1 µM (inactive); in the test with A498, 10.8 µM (inactive). For the same molecule, the GI50 in the test with SNB-19 was 17 µM (inactive); in the test with IGROV-1, 4.86 µM (inactive); in the test with SK-MEL-28, 4.09 µM (inactive); in the test with U-251, 4.89 µM (inactive); in the test with LOX IMVI, 1.5 µM (inactive); with Hs-578T, 14 µM (inactive). For the same molecule, the GI50 is 0.796 µM (active) with NCI-H522; 3.22 µM (inactive) with HCT-116; 5.05 µM (inactive) in the test with SN12C; 3.18 µM (inactive) in the test with OVCAR-8; 2.04 µM (inactive) in the test with SK-MEL-2; 1.45 µM (inactive) in the test on SR.
`O=C(Cc1ccc(Cl)cc1)Nc1ccc2oc(-c3ccccc3)nc2c1`: the GI50 with RPMI-8226 was > 100 µM (inactive); in the test with OVCAR-4, 29.5 µM (inactive); in the test on KM12 it was > 100 µM (inactive); in the test with HOP-92 it was > 100 µM (inactive); with A498, > 100 µM (inactive); with SNB-19, 38.9 µM (inactive). For the same molecule, the GI50 in the test with IGROV-1 is > 100 µM (inactive); with SK-MEL-28, > 100 µM (inactive); in the test on U-251, 56.1 µM (inactive); in the test on LOX IMVI it was > 100 µM (inactive); in the test with Hs-578T, > 100 µM (inactive); with NCI-H522, > 100 µM (inactive). Further, the GI50 in the test with SK-OV-3 is 77.8 µM (inactive); in the test on HCT-116 it was > 100 µM (inactive); in the test with SN12C, 84.9 µM (inactive); in the test on OVCAR-8 it was 32.7 µM (inactive); in the test with SK-MEL-2 it was 89.1 µM (inactive); in the test on SR it was > 100 µM (inactive). The GI50 in the test on UACC-62 is > 100 µM (inactive).
Consider `N=C(N)SC1c2ccccc2-c2cc([N+](=O)[O-])ccc21` (stereo not drawn), for which the GI50 in the test with RPMI-8226 was 4.2 µM (inactive); in the test on OVCAR-4, 5 µM (inactive); in the test on KM12 it was 3.23 µM (inactive); with HOP-92, 13.7 µM (inactive); in the test with UO-31 it was 8.13 µM (inactive); with A498, 3.62 µM (inactive). Besides, the GI50 was 3.66 µM (inactive) in the test with SNB-19; 5.62 µM (inactive) with IGROV-1; 2.41 µM (inactive) in the test on SK-MEL-28; 2.75 µM (inactive) in the test with U-251; 5.57 µM (inactive) in the test on LOX IMVI; 3.1 µM (inactive) in the test on Hs-578T. The GI50 in the test on NCI-H522 was 2.51 µM (inactive); with SK-OV-3, 4.44 µM (inactive); in the test with HCT-116, 4.76 µM (inactive); with SN12C, 8.51 µM (inactive); in the test on OVCAR-8, 8.99 µM (inactive); in the test with SK-MEL-2, 3.51 µM (inactive). In addition, the GI50 in the test with SR was 3.86 µM (inactive); in the test on UACC-62, 2.86 µM (inactive).
For the molecule `O=Cc1ccc2c(c1)CC1(C2)Cc2ccc(C=O)cc2C1`, the GI50 in the test with RPMI-8226 was 0.274 µM (active); in the test with OVCAR-4, 12.4 µM (inactive); with KM12 it was 28.1 µM (inactive); with HOP-92 it was 20.6 µM (inactive); in the test with UO-31, 11.9 µM (inactive); in the test on A498 it was 28.1 µM (inactive). Besides, the GI50 with SNB-19 was 25.1 µM (inactive); with IGROV-1 it was 21.5 µM (inactive); in the test on SK-MEL-28, 23.7 µM (inactive); with U-251, 8.69 µM (inactive); with LOX IMVI, 6.07 µM (inactive); in the test on Hs-578T it was 3.26 µM (inactive). Besides, the GI50 was 22.6 µM (inactive) in the test with NCI-H522; 55.2 µM (inactive) in the test with SK-OV-3; 7.52 µM (inactive) in the test on HCT-116; 28.2 µM (inactive) with SN12C; 7.26 µM (inactive) in the test with OVCAR-8; 11.8 µM (inactive) in the test on SK-MEL-2. Also, the GI50 was 2.67 µM (inactive) in the test on SR and 6.76 µM (inactive) in the test on UACC-62.
For `COC1(CC[C@@H](C)COC2OC(CO)C(O)C(O)C2O)OC2C[C@H]3[C@@H]4CC[C@H]5C[C@@H](OC6OC(CO)C(OC7OC(CO)C(O)C(O)C7O)C(O)C6OC6OC(C)C(O)C(O)C6O)[C@H](O)C[C@]5(C)[C@H]4CC[C@]3(C)C2[C@@H]1C` (stereo partly drawn), the GI50 in the test on RPMI-8226 was 2 µM (inactive); in the test with OVCAR-4 it was 1.97 µM (inactive); in the test with KM12, 2.12 µM (inactive); in the test with HOP-92 it was 4.24 µM (inactive); with UO-31, 1.79 µM (inactive); with A498, 1.81 µM (inactive). For the same molecule, the GI50 in the test with SNB-19 was 1.87 µM (inactive); with IGROV-1, 1.74 µM (inactive); with SK-MEL-28, 1.88 µM (inactive); with U-251, 1.87 µM (inactive); with LOX IMVI, 1.79 µM (inactive); in the test on Hs-578T, 2.52 µM (inactive). Besides, the GI50 was 2.2 µM (inactive) in the test with NCI-H522; 1.87 µM (inactive) with SK-OV-3; 1.86 µM (inactive) with HCT-116; 1.86 µM (inactive) in the test on SN12C; 1.99 µM (inactive) in the test on OVCAR-8; 2.12 µM (inactive) in the test on SK-MEL-2. Moreover, the results for the GI50 with SR and in the test with UACC-62 were 2.77 µM (inactive) and 1.85 µM (inactive), respectively.
Take `COCCOC(=O)C1=C(O)c2ccccc2S(=O)(=O)N1C`: the GI50 with RPMI-8226, in the test on OVCAR-4, with KM12, in the test on HOP-92, with UO-31 and in the test on A498 was > 100 µM (inactive) throughout. In addition, the GI50 with SNB-19, with IGROV-1, in the test on SK-MEL-28, with U-251, in the test on LOX IMVI and with Hs-578T was > 100 µM (inactive) in each case. The GI50 in the test on NCI-H522, in the test with SK-OV-3, in the test on HCT-116, with SN12C, with OVCAR-8 and in the test on SK-MEL-2 was > 100 µM (inactive) each time. Moreover, the GI50 with SR and in the test with UACC-62 was > 100 µM (inactive) throughout.
With `O=[N+]([O-])c1ccc2c(Nc3ccccc3-c3ccccc3Nc3c4ccccc4nc4cc([N+](=O)[O-])ccc34)c3ccccc3nc2c1`, the GI50 is 1.69 µM (inactive) in the test with RPMI-8226; 10 µM (inactive) with OVCAR-4; 2.86 µM (inactive) in the test with KM12; 3.44 µM (inactive) in the test on HOP-92; 3.26 µM (inactive) in the test on UO-31; 9.35 µM (inactive) in the test with A498. The GI50 in the test with SNB-19 is 4.32 µM (inactive); in the test on IGROV-1 it was 10.8 µM (inactive); in the test on SK-MEL-28 it was 24.2 µM (inactive); in the test on U-251, 2.94 µM (inactive); in the test with LOX IMVI, 9.57 µM (inactive); in the test on Hs-578T, 2.47 µM (inactive). Further, the GI50 is 3.87 µM (inactive) with NCI-H522; 13.2 µM (inactive) in the test with SK-OV-3; 1.65 µM (inactive) with HCT-116; 2.54 µM (inactive) in the test on SN12C; 3.93 µM (inactive) with OVCAR-8; 2.03 µM (inactive) in the test on SK-MEL-2. Further, the GI50 is 1.69 µM (inactive) in the test on SR and 3.16 µM (inactive) in the test with UACC-62.
As to `COc1c2ccoc2c(OC)c2oc(=O)ccc12` [ISOPIMPINELLIN], the GI50 in the test on RPMI-8226 was > 100 µM (inactive); in the test with OVCAR-4 it was > 100 µM (inactive); in the test on KM12, > 100 µM (inactive); with HOP-92, 1.99 µM (inactive); in the test on UO-31 it was 95.7 µM (inactive); in the test with A498 it was > 100 µM (inactive). Also, the GI50 in the test on SNB-19 was > 100 µM (inactive); in the test on IGROV-1, > 100 µM (inactive); in the test with SK-MEL-28, > 100 µM (inactive); with U-251, > 100 µM (inactive); with LOX IMVI, > 100 µM (inactive); in the test with Hs-578T, 62.1 µM (inactive). Also, the GI50 in the test with NCI-H522 was > 100 µM (inactive); with HCT-116, > 100 µM (inactive); with SN12C it was > 100 µM (inactive); in the test with OVCAR-8, > 100 µM (inactive); with SR, > 100 µM (inactive); with UACC-62, 36.2 µM (inactive).
For `COc1cc2c(cc1-c1coc3cc(OCC=C(C)C)ccc3c1=O)OCO2`, the GI50 is 15.3 µM (inactive) in the test with RPMI-8226; 13.5 µM (inactive) with OVCAR-4; 13.8 µM (inactive) in the test with KM12; 37.3 µM (inactive) with HOP-92; 31 µM (inactive) with UO-31; 33.4 µM (inactive) in the test with A498. For the same molecule, the GI50 was 27.4 µM (inactive) in the test on SNB-19; 30.8 µM (inactive) in the test with IGROV-1; 45.8 µM (inactive) in the test with SK-MEL-28; 35.2 µM (inactive) in the test with U-251; 19.3 µM (inactive) in the test with LOX IMVI; 28.8 µM (inactive) with Hs-578T. Besides, the GI50 with NCI-H522 was 15.5 µM (inactive); in the test with SK-OV-3 it was 41.5 µM (inactive); in the test with HCT-116, 17.2 µM (inactive); in the test with SN12C it was 27.8 µM (inactive); with SK-MEL-2, 48.1 µM (inactive); with SR, 6.32 µM (inactive). Moreover, the GI50 in the test with UACC-62 is 25.6 µM (inactive).

(Values after ChEMBL document CHEMBL1201862, “PubChem BioAssay data set” (2004).)
